Reference: ChEMBL document CHEMBL1201862, “PubChem BioAssay data set” (2004)
The source made the active and inactive calls.

What was measured:
[1] = molecular target: T1, DNA repair and recombination protein RAD54-like (Homo sapiens, UniProt Q92698); assay: RAD54 Holliday junction migration blockers – biochemical, fluorescence, cherry-picked samples, dose series, confirmation (AID 651657); type: functional
T1 sequence (Q92698 whole entry): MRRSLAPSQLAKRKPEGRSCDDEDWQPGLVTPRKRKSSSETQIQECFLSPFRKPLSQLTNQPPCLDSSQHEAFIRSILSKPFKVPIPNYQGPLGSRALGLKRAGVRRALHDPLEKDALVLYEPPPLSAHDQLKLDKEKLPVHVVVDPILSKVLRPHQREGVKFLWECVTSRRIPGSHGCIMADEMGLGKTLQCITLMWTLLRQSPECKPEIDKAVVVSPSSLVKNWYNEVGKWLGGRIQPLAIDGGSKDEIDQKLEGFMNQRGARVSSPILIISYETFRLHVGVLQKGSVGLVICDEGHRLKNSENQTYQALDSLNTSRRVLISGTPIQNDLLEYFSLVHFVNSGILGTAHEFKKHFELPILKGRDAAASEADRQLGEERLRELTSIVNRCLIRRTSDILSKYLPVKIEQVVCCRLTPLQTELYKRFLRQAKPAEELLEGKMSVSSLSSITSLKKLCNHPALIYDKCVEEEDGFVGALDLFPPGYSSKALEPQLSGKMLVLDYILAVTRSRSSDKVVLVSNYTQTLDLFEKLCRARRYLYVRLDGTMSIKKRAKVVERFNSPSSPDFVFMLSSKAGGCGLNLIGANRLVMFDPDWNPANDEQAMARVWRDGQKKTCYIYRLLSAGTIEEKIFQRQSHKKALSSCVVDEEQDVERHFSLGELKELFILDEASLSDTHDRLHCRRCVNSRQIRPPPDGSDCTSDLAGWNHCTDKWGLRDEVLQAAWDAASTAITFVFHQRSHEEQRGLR

[2] = molecular target: T2, Ubiquitin-conjugating enzyme E2 N (Homo sapiens, UniProt P61088); type: functional;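 further: Dose-response confirmation in a TR-FRET assay detecting UBC13-driven polyubiquitin chain formation, inhibition measured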
T2 sequence (P61088 whole entry): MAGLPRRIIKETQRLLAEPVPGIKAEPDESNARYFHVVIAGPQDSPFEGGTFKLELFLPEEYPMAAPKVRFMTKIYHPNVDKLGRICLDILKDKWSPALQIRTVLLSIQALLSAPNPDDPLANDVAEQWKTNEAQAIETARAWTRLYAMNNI

[3] = molecular target: T3, Sentrin-specific protease 8 (Homo sapiens, UniProt Q96LD8); type: functional;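 further: luminescence read-out of SENP8 inhibition, dose-response confirmation following an ultra-high-throughput screen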
T3 sequence (Q96LD8 whole entry): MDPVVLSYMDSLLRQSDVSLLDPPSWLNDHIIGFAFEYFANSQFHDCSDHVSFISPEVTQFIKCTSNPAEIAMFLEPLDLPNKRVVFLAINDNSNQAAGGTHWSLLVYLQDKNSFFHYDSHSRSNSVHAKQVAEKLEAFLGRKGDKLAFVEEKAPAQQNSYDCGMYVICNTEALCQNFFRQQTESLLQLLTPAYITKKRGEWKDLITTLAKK

Caspase-3 = molecular target: T4, Caspase-3 (Homo sapiens, UniProt P42574); type: functional;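 further: Dose-response selectivity test against caspase-3 for candidate inhibitors of sentrin-specific proteases (SENPs)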
T4 sequence (P42574 whole entry): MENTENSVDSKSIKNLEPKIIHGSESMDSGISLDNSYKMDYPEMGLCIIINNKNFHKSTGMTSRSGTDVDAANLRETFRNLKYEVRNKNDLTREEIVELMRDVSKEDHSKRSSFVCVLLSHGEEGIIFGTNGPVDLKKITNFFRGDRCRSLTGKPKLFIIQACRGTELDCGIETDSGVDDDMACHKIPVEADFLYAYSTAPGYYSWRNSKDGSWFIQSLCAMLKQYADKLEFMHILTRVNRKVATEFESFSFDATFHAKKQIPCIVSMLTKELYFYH

[4] = molecular target: T5, Sentrin-specific protease 7 (Homo sapiens, UniProt Q9BQF6); type: functional;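 further: Luminescence-based dose-response confirmation of ultra-high-throughput screening hits, measuring inhibition of SENP7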
T5 sequence (Q9BQF6 whole entry): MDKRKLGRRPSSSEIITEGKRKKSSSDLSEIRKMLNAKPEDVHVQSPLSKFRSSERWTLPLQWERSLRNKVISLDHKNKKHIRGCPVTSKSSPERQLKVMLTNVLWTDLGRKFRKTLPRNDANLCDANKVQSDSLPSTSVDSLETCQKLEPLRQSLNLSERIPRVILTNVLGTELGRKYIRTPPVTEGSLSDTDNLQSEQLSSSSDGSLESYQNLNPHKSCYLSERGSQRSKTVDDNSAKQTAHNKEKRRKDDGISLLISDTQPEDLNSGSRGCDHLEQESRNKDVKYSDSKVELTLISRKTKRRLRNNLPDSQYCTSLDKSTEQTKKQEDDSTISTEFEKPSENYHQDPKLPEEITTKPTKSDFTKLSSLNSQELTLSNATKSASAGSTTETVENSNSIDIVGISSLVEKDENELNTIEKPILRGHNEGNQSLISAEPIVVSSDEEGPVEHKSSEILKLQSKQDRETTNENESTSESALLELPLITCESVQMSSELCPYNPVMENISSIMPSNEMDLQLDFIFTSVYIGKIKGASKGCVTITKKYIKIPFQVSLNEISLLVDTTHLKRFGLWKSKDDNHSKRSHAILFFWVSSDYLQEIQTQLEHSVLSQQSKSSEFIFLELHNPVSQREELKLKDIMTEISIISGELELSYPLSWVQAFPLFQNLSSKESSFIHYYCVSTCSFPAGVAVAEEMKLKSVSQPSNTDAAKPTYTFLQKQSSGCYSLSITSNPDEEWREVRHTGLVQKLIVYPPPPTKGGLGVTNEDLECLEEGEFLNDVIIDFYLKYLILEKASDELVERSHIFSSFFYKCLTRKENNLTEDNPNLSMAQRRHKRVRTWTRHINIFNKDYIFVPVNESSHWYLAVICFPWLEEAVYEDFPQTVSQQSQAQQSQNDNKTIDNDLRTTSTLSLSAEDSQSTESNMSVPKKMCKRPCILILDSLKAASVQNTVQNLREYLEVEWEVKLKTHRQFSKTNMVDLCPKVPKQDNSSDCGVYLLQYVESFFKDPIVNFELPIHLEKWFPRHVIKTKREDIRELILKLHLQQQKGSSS

[5] = molecular target: T6, Sentrin-specific protease 6 (Homo sapiens, UniProt Q9GZR1); type: functional;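 further: Luminescence-based dose-response confirmatory assay of SENP6 inhibition, following up an ultra-high-throughput screen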
T6 sequence (Q9GZR1 whole entry): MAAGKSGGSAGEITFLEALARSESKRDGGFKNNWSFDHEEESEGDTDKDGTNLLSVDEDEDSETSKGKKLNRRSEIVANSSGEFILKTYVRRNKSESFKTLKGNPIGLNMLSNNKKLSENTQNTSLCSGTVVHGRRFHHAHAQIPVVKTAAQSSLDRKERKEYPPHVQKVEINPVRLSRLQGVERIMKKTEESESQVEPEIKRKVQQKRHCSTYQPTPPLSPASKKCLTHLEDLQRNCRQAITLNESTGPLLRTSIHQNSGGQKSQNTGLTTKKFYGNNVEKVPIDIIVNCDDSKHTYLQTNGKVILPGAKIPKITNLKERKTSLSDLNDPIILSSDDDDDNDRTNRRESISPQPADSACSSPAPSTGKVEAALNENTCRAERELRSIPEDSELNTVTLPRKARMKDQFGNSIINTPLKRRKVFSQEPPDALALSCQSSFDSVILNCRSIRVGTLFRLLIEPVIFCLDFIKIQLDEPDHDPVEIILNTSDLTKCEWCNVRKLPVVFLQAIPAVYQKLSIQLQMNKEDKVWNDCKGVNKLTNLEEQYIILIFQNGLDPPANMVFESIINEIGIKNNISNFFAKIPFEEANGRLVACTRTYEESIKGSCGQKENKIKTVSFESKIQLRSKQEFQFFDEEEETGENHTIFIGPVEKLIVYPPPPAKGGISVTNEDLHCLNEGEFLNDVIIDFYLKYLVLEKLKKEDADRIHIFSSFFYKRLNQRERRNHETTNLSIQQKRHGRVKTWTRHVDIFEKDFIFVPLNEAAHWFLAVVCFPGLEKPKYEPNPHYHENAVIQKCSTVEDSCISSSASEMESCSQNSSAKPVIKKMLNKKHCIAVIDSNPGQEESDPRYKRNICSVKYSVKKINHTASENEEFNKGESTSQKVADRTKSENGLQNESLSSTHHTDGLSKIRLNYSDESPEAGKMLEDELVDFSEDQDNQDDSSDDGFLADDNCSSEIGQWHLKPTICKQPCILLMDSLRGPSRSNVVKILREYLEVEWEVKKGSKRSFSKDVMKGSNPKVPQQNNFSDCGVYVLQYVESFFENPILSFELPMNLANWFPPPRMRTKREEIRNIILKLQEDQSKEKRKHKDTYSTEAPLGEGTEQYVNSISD

[6] = molecular target: T7, Polyadenylate-binding protein 1 (Homo sapiens, UniProt P11940); assay: MLLE domain peptide-binding blockers, IC50 – biochemical, fluorescence polarization, FITC-PAM2 peptide, dose response (AID 602259); type: functional; details: read-out: IC50_Mean
T7 sequence (P11940 whole entry, the tested form may be a part): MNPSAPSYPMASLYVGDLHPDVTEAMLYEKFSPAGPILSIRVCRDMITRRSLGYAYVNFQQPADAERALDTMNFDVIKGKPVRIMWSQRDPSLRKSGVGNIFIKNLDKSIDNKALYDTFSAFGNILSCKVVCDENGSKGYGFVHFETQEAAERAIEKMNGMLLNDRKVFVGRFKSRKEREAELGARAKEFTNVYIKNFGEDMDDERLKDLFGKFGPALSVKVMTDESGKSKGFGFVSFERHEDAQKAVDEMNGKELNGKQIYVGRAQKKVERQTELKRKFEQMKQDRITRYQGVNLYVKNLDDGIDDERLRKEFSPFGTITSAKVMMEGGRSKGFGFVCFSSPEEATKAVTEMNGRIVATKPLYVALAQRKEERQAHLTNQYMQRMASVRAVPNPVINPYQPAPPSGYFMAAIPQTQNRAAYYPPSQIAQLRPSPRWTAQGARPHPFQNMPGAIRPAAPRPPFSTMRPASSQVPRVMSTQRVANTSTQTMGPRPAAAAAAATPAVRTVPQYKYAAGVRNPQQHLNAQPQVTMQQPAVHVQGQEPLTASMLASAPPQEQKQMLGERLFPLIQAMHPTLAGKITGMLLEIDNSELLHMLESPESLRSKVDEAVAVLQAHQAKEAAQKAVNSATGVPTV

[7] = molecular target: T7, Polyadenylate-binding protein 1; assay: MLLE binding blockers, Cy5 peptide tracer – biochemical, fluorescence polarization, Cy5-PAM2 peptide, secondary, miRNA deadenylation inhibitor project, dose response (AID 602260); type: functional; details: read-out: IC50_Mean
[8] = molecular target: T8, Mitochondrial peptide methionine sulfoxide reductase (Bos taurus, UniProt P54149); assay: Absorbance-based biochemical high throughput dose response assay for activators of Methionine sulfoxide reductase A (MsrA).; type: functional
T8 sequence (P54149 whole entry): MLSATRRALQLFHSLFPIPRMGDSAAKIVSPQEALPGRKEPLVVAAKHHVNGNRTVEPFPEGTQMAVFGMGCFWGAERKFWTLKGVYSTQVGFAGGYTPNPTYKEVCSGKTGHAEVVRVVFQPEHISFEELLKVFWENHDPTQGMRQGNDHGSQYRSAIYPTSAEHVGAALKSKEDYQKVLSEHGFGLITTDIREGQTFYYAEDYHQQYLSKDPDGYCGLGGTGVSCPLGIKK

[9] = molecular target: T9, Endoribonuclease toxin MazF (Escherichia coli K-12, UniProt P0AE70); assay: activation of MazEF endoribonuclease cleavage – biochemical, fluorescence, single-stranded RNA substrate, uHTS hits, dose response (AID 588481); type: functional
T9 sequence (P0AE70 whole entry): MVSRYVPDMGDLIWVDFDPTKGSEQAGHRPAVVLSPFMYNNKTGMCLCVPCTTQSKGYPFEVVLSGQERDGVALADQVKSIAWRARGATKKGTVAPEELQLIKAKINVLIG

[10] = molecular target: T9, Endoribonuclease toxin MazF; assay: substrate-only fluorescence increase artefacts – biochemical, single-stranded RNase substrate, counter-screen for MazEF activator project, dose response (AID 588502); type: functional
[11] = molecular target: Photoreceptor-specific nuclear receptor (Homo sapiens, UniProt Q9Y5X4); type: functional, cell-based;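 further: CHO-S cells with Gal4-NCOR and VP16-NR2E3 two-hybrid luciferase reporter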
Chain of Photoreceptor-specific nuclear receptor (Q9Y5X4 whole entry, the tested form may be a part): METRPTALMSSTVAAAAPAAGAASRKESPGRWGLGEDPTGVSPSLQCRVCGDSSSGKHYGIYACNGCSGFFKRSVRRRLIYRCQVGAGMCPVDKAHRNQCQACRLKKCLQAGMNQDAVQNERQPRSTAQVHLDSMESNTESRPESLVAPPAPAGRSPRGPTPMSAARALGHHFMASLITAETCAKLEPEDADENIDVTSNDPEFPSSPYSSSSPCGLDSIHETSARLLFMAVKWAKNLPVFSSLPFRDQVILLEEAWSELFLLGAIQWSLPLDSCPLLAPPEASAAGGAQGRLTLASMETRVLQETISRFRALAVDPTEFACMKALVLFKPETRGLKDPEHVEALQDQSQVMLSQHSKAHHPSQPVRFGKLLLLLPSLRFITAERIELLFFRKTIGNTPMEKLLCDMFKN

Vero = assay: cells; type: functional; details: Chlorocebus sabaeus
[12] = viability of HCT116 lacking mutant beta-catenin – cell-based, human colon tumor, dose response (AID 1045); type: functional;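 further: HCT116 colon tumor cells with beta catenin knocked out; cells exposed to compound for 60 hours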
[13] = viability of PTEN-deleted HCT116 cells – cell-based, HCT116 PTEN knockout, dose response (AID 1047); type: functional;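 further: HCT116 colon tumor cells with PTEN knocked out; cells exposed to compound for 60 hours before readout; potency for loss of cell viability measured by luminescence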
[14] = Trypanosoma cruzi growth suppression in host cells – NIH3T3 host cells, beta-gal luminescence, confirmation (AID 2044); type: functional, cell-based;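 further: intracellular parasites grown in NIH/3T3 mouse fibroblasts as host cells; luminescent beta-galactosidase reporter signal from transgenic T. cruzi replicating inside host cells; inhibitors lower the luminescence signal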
cells = type: functional
[15] = NIH3T3 cell viability loss – ATP luminescence, mouse fibroblasts, counter-screen, dose response (AID 2010); type: functional, cell-based;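 further: cells exposed to compound for about 90 hours before reading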

CCCCN(CC)CCCNC(=O)c1cc2c(=O)n(C)c3ccccc3c2n1C
AC50 [1]: 22.2 µM (active) | IC50 [2]: > 20 µM (inactive)

O=C(Nc1ccccc1)c1ccc(-c2ccccc2Cl)o1
IC50 [3]: > 100 µM (inactive) | IC50 (Caspase-3): 74.3 µM (active) | IC50 [4]: 4.47 µM (active) | IC50 [5]: > 100 µM (inactive)

COCc1cc(=O)[nH]c(=S)[nH]1
IC50 [6]: > 66 µM (inactive) | IC50 [7]: > 66 µM (inactive) | EC50 [8]: > 104 µM (inactive)

Brc1ccc(NN=Nc2ccccc2)cc1
IC50 [3]: 10.9 µM (active) | IC50 (Caspase-3): 27.1 µM (active) | IC50 [4]: 4.66 µM (active) | IC50 [5]: 11.2 µM (active)

CCCCC(=O)NNC(=S)NC(=O)c1ccc([N+](=O)[O-])cc1
EC50 [8]: > 104 µM (inactive)

COc1ccc(-c2cc(C)no2)cc1S(=O)(=O)N1CCOc2ccc(C)cc21
EC50 [9]: > 99 µM (inactive) | EC50 [10]: > 99 µM (inactive)

O=C(c1cc(S(=O)(=O)N2CCN(c3ccccc3)CC2)ccc1Cl)N1CCCCCCC1
IC50 [11]: 5.5 µM (active)

Cc1ccc(-c2nc(N(C)C3CCN(C)CC3)c3ccccc3n2)cc1
CC50 (Vero): 16.3 µM (active) | AC50 [1]: 3.93 µM (active) | EC50 [12]: 6.51 µM (active) | EC50 [13]: 6.77 µM (active)

O=C(OCC(=O)N1CCC(c2ccccc2)=N1)c1ccc([N+](=O)[O-])s1
EC50 [14]: 0.809 µM (active) | IC50 (cells): 1.13 µM (active) | IC50 [3]: 5.92 µM (active) | EC50 [15]: > 30 µM (not active) | IC50 (Caspase-3): 28.2 µM (active) | IC50 [4]: 18.9 µM (active) | IC50 [5]: 7.19 µM (active)

COc1cccc(NC(=O)c2ccc(-c3ccc([N+](=O)[O-])cc3)o2)c1
EC50 [9]: > 99 µM (inactive) | EC50 [10]: > 99 µM (inactive)

CCOC(=O)C1=C(C)N=c2s/c(=C/c3ccccc3)c(=O)n2C1c1ccc(OC)c(OC)c1 (configuration not stated)
EC50 [9]: > 99 µM (inactive) | EC50 [10]: > 99 µM (inactive)
